This is an account of results in US11685732B2, “MYST family histone acetyltransferase inhibitors” (Epizyme, Inc., priority 2017, dated 2023).

pIC50: −log10 of the molar value. Some results are limits rather than exact numbers.

The target of one assay is KAT-7 (Homo sapiens (Human), UniProt O95251). Kind of assay: KAT-7 biochemical inhibition assay (SAMDI mass spectrometry). An outline of the steps:
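KAT-7 (6 nM) was pre-incubated with serially diluted compound (2% DMSO) in Tris pH 8.0 with DTT. Reaction with 1 μM peptide and 2 μM acetyl-CoA ran 120 min at 25 °C and was stopped with 0.5% formic acid. Acetylation was read by SAMDI-TOF mass spectrometry to give IC50.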

The target of another assay is KAT-6A (Homo sapiens (Human), UniProt Q92794). Kind of assay: KAT-6A biochemical inhibition assay (SAMDI mass spectrometry). An outline of the steps:
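Enzyme (12.5 nM final) pre-incubated with serially diluted compounds (2% DMSO final) in 50 mM Tris pH 8.0 with Tween20, gelatin and 1 mM DTT. Reaction started with 1 μM peptide substrate and 1 μM acetyl-CoA, run 90 min at 25 °C, quenched with 0.5% formic acid, read by SAMDI-TOF mass spectrometry; IC50 derived.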

Another assay addresses KAT-5 (Homo sapiens (Human), UniProt Q92993). Description: KAT-5 biochemical inhibition assay (SAMDI mass spectrometry). Summed up: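 KAT-5 at 9 nM final was preincubated with serially diluted compound (2% DMSO) in 50 mM Tris pH 8.0 with 1 mM DTT. Reaction ran with 1 μM peptide substrate and 0.5 μM acetyl-CoA for 90 min at 25° C, was quenched with 0.5% formic acid, and was read by SAMDI-TOF mass spectrometry.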

Another assay concerns the target KAT-8 (Homo sapiens (Human), UniProt Q9H7Z6). Kind of assay: KAT-8 biochemical inhibition assay (SAMDI mass spectrometry). An outline of the steps:
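Compounds in 2% DMSO pre-incubated with 12.5 nM enzyme in 50 mM Tris pH 8.0 with Tween20, gelatin and 1 mM DTT. Then 1 μM peptide and 5 μM acetyl-CoA were added, 90 min at 25 °C; formic acid stop and SAMDI-TOF mass spectrometry for IC50.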

Chain of KAT-8 (Q9H7Z6 other isoform, or with tags, fused parts or gaps): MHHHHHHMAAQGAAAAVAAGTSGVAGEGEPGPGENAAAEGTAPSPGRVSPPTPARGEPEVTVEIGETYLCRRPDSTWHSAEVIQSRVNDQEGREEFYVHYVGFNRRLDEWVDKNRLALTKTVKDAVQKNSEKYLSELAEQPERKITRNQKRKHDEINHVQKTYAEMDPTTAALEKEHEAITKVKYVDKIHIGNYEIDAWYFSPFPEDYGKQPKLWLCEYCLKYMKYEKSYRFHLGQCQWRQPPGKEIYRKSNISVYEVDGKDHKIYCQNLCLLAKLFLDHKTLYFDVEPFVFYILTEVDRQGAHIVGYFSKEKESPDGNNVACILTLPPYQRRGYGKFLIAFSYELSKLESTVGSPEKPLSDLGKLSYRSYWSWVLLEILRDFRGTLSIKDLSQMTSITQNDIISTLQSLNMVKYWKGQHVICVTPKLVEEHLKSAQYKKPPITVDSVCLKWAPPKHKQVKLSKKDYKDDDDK
Chain of KAT-5 (Q92993 other isoform, or with tags, fused parts or gaps): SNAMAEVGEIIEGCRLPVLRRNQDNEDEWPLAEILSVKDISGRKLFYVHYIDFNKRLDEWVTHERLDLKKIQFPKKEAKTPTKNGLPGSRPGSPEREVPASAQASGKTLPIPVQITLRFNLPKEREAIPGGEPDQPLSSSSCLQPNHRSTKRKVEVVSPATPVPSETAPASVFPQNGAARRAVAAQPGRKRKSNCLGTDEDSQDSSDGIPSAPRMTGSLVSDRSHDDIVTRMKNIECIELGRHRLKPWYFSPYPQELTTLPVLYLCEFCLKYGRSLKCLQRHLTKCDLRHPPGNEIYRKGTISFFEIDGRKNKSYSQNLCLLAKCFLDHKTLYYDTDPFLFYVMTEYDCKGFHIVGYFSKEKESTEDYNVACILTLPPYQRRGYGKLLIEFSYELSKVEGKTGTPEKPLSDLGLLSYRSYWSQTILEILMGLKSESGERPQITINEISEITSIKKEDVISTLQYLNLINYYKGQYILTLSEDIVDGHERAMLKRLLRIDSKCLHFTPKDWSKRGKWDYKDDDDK
Chain of KAT-6A (Q92794 other isoform, or with tags, fused parts or gaps): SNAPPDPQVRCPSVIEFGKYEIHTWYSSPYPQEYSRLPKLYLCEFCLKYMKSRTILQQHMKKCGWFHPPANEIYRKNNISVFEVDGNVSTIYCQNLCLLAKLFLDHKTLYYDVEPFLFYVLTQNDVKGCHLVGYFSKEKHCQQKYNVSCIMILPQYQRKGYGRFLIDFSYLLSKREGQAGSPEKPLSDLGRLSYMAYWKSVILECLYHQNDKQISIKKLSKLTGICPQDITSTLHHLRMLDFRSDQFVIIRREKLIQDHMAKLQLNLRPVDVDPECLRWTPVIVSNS
Chain of KAT-7 (O95251 other isoform, or with tags, fused parts or gaps): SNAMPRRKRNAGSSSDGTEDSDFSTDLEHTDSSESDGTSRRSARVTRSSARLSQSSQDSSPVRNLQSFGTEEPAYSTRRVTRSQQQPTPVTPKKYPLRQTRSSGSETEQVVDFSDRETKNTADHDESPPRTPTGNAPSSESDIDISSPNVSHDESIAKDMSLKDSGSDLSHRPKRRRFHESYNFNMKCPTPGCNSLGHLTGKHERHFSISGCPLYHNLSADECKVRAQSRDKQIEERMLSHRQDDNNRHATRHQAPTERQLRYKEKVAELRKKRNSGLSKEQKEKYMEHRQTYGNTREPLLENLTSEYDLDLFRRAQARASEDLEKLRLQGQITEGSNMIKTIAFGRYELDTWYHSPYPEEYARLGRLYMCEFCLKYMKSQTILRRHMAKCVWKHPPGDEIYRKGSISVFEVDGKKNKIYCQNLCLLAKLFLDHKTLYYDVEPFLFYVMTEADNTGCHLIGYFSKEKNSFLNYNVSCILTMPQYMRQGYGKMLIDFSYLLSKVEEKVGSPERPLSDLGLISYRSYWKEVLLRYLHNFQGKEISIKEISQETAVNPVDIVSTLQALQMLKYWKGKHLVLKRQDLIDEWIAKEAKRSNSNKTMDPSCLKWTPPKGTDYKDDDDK

On to `CCNC(=O)N1CCC(C)C(CS(=O)(=O)NNC(=O)c2cc(-c3cn(C)cn3)cc(Cl)c2F)C1` (stereo not shown) [Compound I-352], for which the negative-log IC50 (pIC50) was above 5.00 against KAT-7, 4.30 to 5.00 at KAT-6A, above 5.00 against KAT-5 and 4.30 to 5.00 at KAT-8.
Turning to `CO[C@H]1CC[C@@H](CS(=O)(=O)NNC(=O)c2cc(-c3cn(C)cn3)cc(Cl)c2F)CC1` [Compound I-353], the pIC50 against KAT-7 is above 5.00; against KAT-6A, above 5.00; at KAT-5, above 5.00; on KAT-8 it was 4.30 to 5.00.
As to `Cn1cnc(-c2cc(Cl)c(F)c(C(=O)NNS(=O)(=O)c3ccc(OCc4ccccc4)nc3)c2)c1` [Compound I-354], the pIC50 was above 5.00 on KAT-7, 4.30 to 5.00 on KAT-6A, above 5.00 on KAT-5 and 4.30 to 5.00 at KAT-8.
`CCNC(=O)N[C@@H]1CCC[C@@H](CS(=O)(=O)NNC(=O)c2cc(-c3cn(C)cn3)cc(Cl)c2F)C1` [Compound I-355]: the pIC50 is above 5.00 against KAT-7, above 5.00 at KAT-6A, above 5.00 on KAT-5 and 4.30 to 5.00 on KAT-8.
As to `CCO[C@@H]1CCC[C@H](CS(=O)(=O)NNC(=O)c2cc(-c3cn(C)cn3)cc(Cl)c2F)C1` [Compound I-356], the pIC50 at KAT-7 was above 5.00; against KAT-6A, 4.30 to 5.00; on KAT-5, above 5.00; at KAT-8, 4.30 to 5.00.
Consider `CCO[C@H]1CCC[C@H](CS(=O)(=O)NNC(=O)c2cc(-c3cn(C)cn3)cc(Cl)c2F)C1` [Compound I-357], for which the pIC50 at KAT-7 was above 5.00; on KAT-6A it was above 5.00; against KAT-5, above 5.00; on KAT-8, 4.30 to 5.00.
As to `Cn1cnc(-c2cc(Cl)c(F)c(C(=O)NNS(=O)(=O)CC3(F)CCCCC3)c2)c1` [Compound I-358], the pIC50 is above 5.00 against KAT-7, above 5.00 on KAT-6A, above 5.00 against KAT-5 and 4.30 to 5.00 against KAT-8.
As to `COc1ccc(CN(C)C(=O)NC2CCC(CS(=O)(=O)NNC(=O)c3cc(-c4cn(C)cn4)cc(Cl)c3F)C2)cc1` (stereo not shown) [Compound I-359], the pIC50 is above 5.00 against KAT-7, above 5.00 on KAT-6A, above 5.00 against KAT-5 and 4.30 to 5.00 against KAT-8.
In the case of `CNC(=O)NC1CCC(CS(=O)(=O)NNC(=O)c2cc(-c3cn(C)cn3)cc(Cl)c2F)C1` (stereo not shown) [Compound I-360], the pIC50 against KAT-7 was above 5.00; at KAT-6A, above 5.00; against KAT-5, above 5.00; on KAT-8 it was 4.30 to 5.00.
Regarding `Cn1cnc(-c2cc(Cl)c(F)c(C(=O)NNS(=O)(=O)c3cnn(CCOCc4ccccc4)c3)c2)c1` [Compound I-361], the pIC50 was above 5.00 against KAT-7, 4.30 to 5.00 on KAT-6A, 4.30 to 5.00 against KAT-5 and 4.30 to 5.00 at KAT-8.
As for `Cn1cnc(-c2cc(Cl)c(F)c(C(=O)NNS(=O)(=O)c3cnn(CCO)c3)c2)c1` [Compound I-362], the negative logarithm of the IC50 (pIC50) against KAT-7 was above 5.00; on KAT-6A, 4.30 to 5.00; at KAT-5, 4.30 to 5.00; at KAT-8 it was 4.30 to 5.00.
On to `CCNC(=O)N(C)[C@H]1CC[C@@H](CS(=O)(=O)NNC(=O)c2cc(-c3cn(C)cn3)cc(Cl)c2F)CC1` [Compound I-363], for which the pIC50 at KAT-7 was above 5.00; at KAT-6A it was 4.30 to 5.00; against KAT-5, above 5.00; at KAT-8, 4.30 to 5.00.
For the compound `CN[C@H]1CC[C@@H](CS(=O)(=O)NNC(=O)c2cc(-c3cn(C)cn3)cc(Cl)c2F)CC1` [Compound I-364], the pIC50 against KAT-7 is above 5.00; on KAT-6A, 4.30 to 5.00; against KAT-5, 4.30 to 5.00; against KAT-8, 4.30 to 5.00.
Consider `CN(C)C(=O)N(C)[C@H]1CC[C@@H](CS(=O)(=O)NNC(=O)c2cc(-c3cn(C)cn3)cc(Cl)c2F)CC1` [Compound I-365], for which the pIC50 against KAT-7 was above 5.00; against KAT-6A, above 5.00; against KAT-5 it was above 5.00; against KAT-8, 4.30 to 5.00.
As to `CN(C)C(=O)N(C)[C@H]1CC[C@H](CS(=O)(=O)NNC(=O)c2cc(-c3cn(C)cn3)cc(Cl)c2F)CC1` [Compound I-366], the pIC50 on KAT-7 is above 5.00; at KAT-6A, above 5.00; on KAT-5 it was above 5.00; against KAT-8, 4.30 to 5.00.
Consider `CC(=O)Nc1cccc(S(=O)(=O)NNC(=O)c2cc(-c3cn(C)cn3)cc(Cl)c2F)c1` [Compound I-367], for which the pIC50 against KAT-7 was above 5.00; on KAT-6A, above 5.00; at KAT-5, above 5.00; on KAT-8, 4.30 to 5.00.
For the compound `COCCOc1cccc(S(=O)(=O)NNC(=O)c2cc(-c3cn(C)cn3)cc(Cl)c2F)c1` [Compound I-368], the negative logarithm of the IC50 (pIC50) was above 5.00 against KAT-7, above 5.00 against KAT-6A, above 5.00 against KAT-5 and 4.30 to 5.00 against KAT-8.
Take `COCCOc1ccc(S(=O)(=O)NNC(=O)c2cc(-c3cn(C)cn3)cc(Cl)c2F)cc1` [Compound I-369]: the pIC50 against KAT-7 was above 5.00; against KAT-6A it was 4.30 to 5.00; against KAT-5 it was above 5.00; on KAT-8 it was 4.30 to 5.00.
Consider `CC(=O)Nc1ccccc1S(=O)(=O)NNC(=O)c1cc(-c2cn(C)cn2)cc(Cl)c1F` [Compound I-370], for which the pIC50 against KAT-7 is above 5.00; on KAT-6A, above 5.00; against KAT-5, 4.30 to 5.00; at KAT-8, 4.30 to 5.00.
Regarding `Cn1cnc(-c2cc(Cl)c(F)c(C(=O)NNS(=O)(=O)C[C@H]3CCOC3)c2)c1` [Compound I-371], the negative logarithm of the IC50 (pIC50) against KAT-7 is above 5.00; on KAT-6A, above 5.00; at KAT-5, above 5.00; on KAT-8, 4.30 to 5.00.
For `Cn1cnc(-c2cc(Cl)c(F)c(C(=O)NNS(=O)(=O)C[C@@H]3CCOC3)c2)c1` [Compound I-372], the pIC50 at KAT-7 was above 5.00; against KAT-6A, 4.30 to 5.00; against KAT-5 it was above 5.00; against KAT-8, 4.30 to 5.00.
For the compound `COCCc1c(-c2cc(Cl)c(F)c(C(=O)NNS(=O)(=O)CC3CCOCC3)c2)cnn1C` [Compound I-373], the pIC50 against KAT-7, against KAT-6A, against KAT-5 and on KAT-8 was 4.30 to 5.00 each time.
As to `Cn1cnc(-c2cc(Cl)c(F)c(C(=O)NNS(=O)(=O)c3cccnc3OCc3ccccc3)c2)c1` [Compound I-374], the pIC50 against KAT-7 was above 5.00; against KAT-6A, above 5.00; at KAT-5, above 5.00; against KAT-8, 4.30 to 5.00.
For `Cn1cnc(-c2cc(Cl)c(F)c(C(=O)NNS(=O)(=O)c3cccc(OCc4ccccc4)n3)c2)c1` [Compound I-375], the pIC50 against KAT-7 is above 5.00; at KAT-6A, above 5.00; at KAT-5, above 5.00; against KAT-8, 4.30 to 5.00.
`CN(C(=O)OC(C)(C)C)c1ccc(S(=O)(=O)NNC(=O)c2cc(-c3cn(C)cn3)cc(Cl)c2F)cc1` [Compound I-377]: the pIC50 at KAT-7 is above 5.00; against KAT-6A it was 4.30 to 5.00; against KAT-5, 4.30 to 5.00; on KAT-8, 4.30 to 5.00.
For the compound `Cn1cnc(-c2cc(Cl)c(F)c(C(=O)NNS(=O)(=O)c3c(F)cccc3F)c2)c1` [Compound I-378], the pIC50 is above 5.00 against KAT-7, above 5.00 against KAT-6A, above 5.00 against KAT-5 and 4.30 to 5.00 against KAT-8.
Take `CC(=O)Nc1ccc(S(=O)(=O)NNC(=O)c2cc(-c3cn(C)cn3)cc(Cl)c2F)cc1` [Compound I-379]: the pIC50 was above 5.00 on KAT-7, 4.30 to 5.00 against KAT-6A, 4.30 to 5.00 against KAT-5 and 4.30 to 5.00 against KAT-8.
For `CCOc1ccc(S(=O)(=O)NNC(=O)c2cc(-c3cn(C)cn3)cc(Cl)c2F)cc1` [Compound I-380], the pIC50 against KAT-7 was above 5.00; against KAT-6A, above 5.00; against KAT-5, above 5.00; against KAT-8 it was 4.30 to 5.00.
For the compound `Cn1cnc(-c2cc(Cl)c(F)c(C(=O)NNS(=O)(=O)c3ccc(=O)[nH]c3)c2)c1` [Compound I-381], the pIC50 against KAT-7 was above 5.00; against KAT-6A, above 5.00; against KAT-5, 4.30 to 5.00; at KAT-8, 4.30 to 5.00.
On to `CNc1ccc(S(=O)(=O)NNC(=O)c2cc(-c3cn(C)cn3)cc(Cl)c2F)cc1` [Compound I-382], for which the negative logarithm of the IC50 (pIC50) was above 5.00 against KAT-7, above 5.00 on KAT-6A, 4.30 to 5.00 against KAT-5 and below 4.00 on KAT-8.
With `Cn1cnc(-c2cc(Cl)c(F)c(C(=O)NNS(=O)(=O)CC3CCc4ccccc4C3)c2)c1` (stereo not shown) [Compound I-383], the pIC50 against KAT-7 is above 5.00; against KAT-6A, above 5.00; at KAT-5 it was above 5.00; against KAT-8, 4.30 to 5.00.
For the compound `Cn1cnc(-c2cc(Cl)c(F)c(C(=O)NNS(=O)(=O)CC3CCCCC3O)c2)c1` (stereo not shown) [Compound I-384], the pIC50 on KAT-7 is above 5.00; at KAT-6A, 4.30 to 5.00; at KAT-5, above 5.00; at KAT-8, 4.00 to 4.30.
Turning to `CNc1ccccc1S(=O)(=O)NNC(=O)c1cc(-c2cn(C)cn2)cc(Cl)c1F` [Compound I-385], the pIC50 on KAT-7 is above 5.00; at KAT-6A it was above 5.00; against KAT-5 it was above 5.00; on KAT-8 it was below 4.00.
Take `COC1CCC(CS(=O)(=O)NNC(=O)c2cc(-c3cn(C)cn3)cc(Cl)c2F)C1` (stereo not shown) [Compound I-387]: the negative-log IC50 (pIC50) is above 5.00 on KAT-7, above 5.00 on KAT-6A, above 5.00 against KAT-5 and 4.00 to 4.30 at KAT-8.

In general, pIC50 refers to the negative decadic logarithm of the IC50, by convention in mol/L. A lower pIC50 goes with a high IC50.
